Source: PMC9086992 (Chemmedchem, 2022)

How the values were obtained:
Assay type in all cases: cell-based
[1] = test system: MOLT-4 leukemia cell line; assay: cells; conditions: Homo sapiens, MOLT-4, 48 h, read-out: % inhibition MOLT-4
[2] = test system: CCRF-CEM leukemia cell line; assay: cells; conditions: Homo sapiens, 48 h, read-out: % inhibition CCRF-CEM
HL-60 leukemia cell line = assay: cells; conditions: Homo sapiens, HL-60, 48 h, read-out: % inhibition HL-60
[3] = test system: RPMI-8226 leukemia cell line; assay: cells; conditions: Homo sapiens, RPMI-8226, 48 h, read-out: % inhibition RPMI-8226
K562 leukemia cell line = conditions: 10 μM compound, 48 h treatment, CellTiter-Blue

C[C@H]1[C@H](OC(=O)CCC(=O)O)O[C@@H]2O[C@@]3(C)CC[C@H]4[C@H](C)CC[C@@H]1[C@@]24OO3 [artesunic acid, Artesunic acid]
inhibition at 10 µM [1]: 9.9 ± 4.8%
inhibition at 10 µM [2]: 9.4 ± 4%
inhibition at 10 µM (HL-60 leukemia cell line): 44.3 ± 7.4%
inhibition at 10 µM [3]: 27.3 ± 6.1%

COc1cccc2c1C(=O)c1c(O)c3c(c(O)c1C2=O)C[C@@](O)(C(=O)CO)C[C@@H]3O[C@H]1C[C@H](N)[C@H](O)[C@H](C)O1 [doxorubicin]
inhibition at 10 µM [1]: 93.2 ± 2.6%
% inhibition K562 (K562 leukemia cell line): 78.2±4.1%
inhibition at 10 µM [2]: 92.3 ± 1.3%
inhibition at 10 µM (HL-60 leukemia cell line): 91.5 ± 0.6%
inhibition at 10 µM [3]: 84.1 ± 3.2%
